{"source": "patent US4103008A", "about": "“7[2(2,3 Dioxopiperazin-1-yl-carbonylamino)substituted 2 phenylacetamido]-3-2'-thiadiazolyl cephalosporanic acid derivatives” (priority 1976, dated 1978)", "key": {"[1]": {"tested_on": "Streptococcus faecalis ATCC 8043", "experiment": "In vitro antibacterial activity (MIC)", "format": "cell-based", "details": "Enterococcus faecalis, ATCC8043"}, "[2]": {"tested_on": "Enterobacter strain C73-17", "experiment": "In vitro antibacterial activity (MIC)", "format": "cell-based", "details": "C7317"}, "Escherichia coli C 73-1": {"tested_on": "Escherichia coli C 73-1", "experiment": "In vitro antibacterial activity (MIC)", "format": "cell-based", "details": "C731"}, "[3]": {"tested_on": "Vibrio parahaemolyticus K - 5", "experiment": "In vitro antibacterial activity (MIC)", "format": "cell-based", "details": "K5"}, "[4]": {"tested_on": "Staphylococcus aureus FDA 209NIH, P-J C-1", "experiment": "In vitro antibacterial activity (MIC)", "format": "cell-based"}, "[5]": {"tested_on": "Shigella dysenteriae shigae", "experiment": "microbe, parasite or virus in culture", "format": "cell-based"}, "[6]": {"tested_on": "Bacillus substilis ATCC 6633", "experiment": "In vitro antibacterial activity (MIC)", "format": "cell-based", "details": "ATCC6633"}, "[7]": {"tested_on": "Salmonella enteritidis No. 11", "experiment": "In vitro antibacterial activity (MIC)", "format": "cell-based", "details": "Salmonella enterica"}, "[8]": {"tested_on": "Pseudomonas strain C73-63", "experiment": "In vitro antibacterial activity (MIC)", "format": "cell-based", "details": "C7363"}, "Proteus morganii C73-23": {"tested_on": "Proteus morganii C73-23", "experiment": "In vitro antibacterial activity (MIC)", "format": "cell-based", "details": "Morganella morganii, C7323"}, "Klebsilla pneumoniae": {"tested_on": "Klebsilla pneumoniae", "experiment": "In vitro antibacterial activity (MIC)", "format": "cell-based"}, "Proteus morganii kono": {"tested_on": "Proteus morganii kono", "experiment": "In vitro antibacterial activity (MIC)", "format": "cell-based", "details": "Morganella morganii"}, "[9]": {"experiment": "Serum concentration and accumulative urinary excretion in rabbit", "details": "in vivo, im; for concentration at 0.5 h: after 30 mins.", "description": "(§1) Given below are the test results of in vitro antibacterial activity studies, serum concentrations and accumulative urinary excretions in rabbits and the protecting effects in mice, of some representative compounds of the invention.\n(§2) The compounds used in the tests are shown in the following Table 1, but all of these compounds are in the form of the sodium salt.\nEach of the test compounds (20 mg/kg) was intramuscularly administered to one group of 3 rabbits, and the amounts of antibiotics were measured by a conventional method, using Sarcina lutea."}, "Escherichia coli C 73-4": {"tested_on": "Escherichia coli C 73-4", "experiment": "In vitro antibacterial activity (MIC)", "format": "cell-based", "details": "C734"}, "Serratia strain No. 2": {"tested_on": "Serratia strain No. 2", "experiment": "In vitro antibacterial activity (MIC)", "format": "cell-based"}, "[10]": {"tested_on": "Vibrio parahaemolyticus K - 3", "experiment": "In vitro antibacterial activity (MIC)", "format": "cell-based", "details": "K3"}, "Serratia strain No. 1": {"tested_on": "Serratia strain No. 1", "experiment": "In vitro antibacterial activity (MIC)", "format": "cell-based"}, "[11]": {"tested_on": "Pseudomonas strain C73-83", "experiment": "In vitro antibacterial activity (MIC)", "format": "cell-based", "details": "C7383", "text": "as §1, §2"}, "Salmonella strain C73-1": {"tested_on": "Salmonella strain C73-1", "experiment": "In vitro antibacterial activity (MIC)", "format": "cell-based", "details": "C731", "text": "as §1, §2"}, "[12]": {"tested_on": "Salmonella strain C 73-30", "experiment": "In vitro antibacterial activity (MIC)", "format": "cell-based", "details": "C7330", "text": "as §1, §2"}, "[13]": {"tested_on": "Pseudomonas aeruginosa C73-2", "experiment": "In vitro antibacterial activity (MIC)", "format": "cell-based", "details": "C732"}, "[14]": {"tested_on": "Pseudomonas aerugenosa E 2 strain", "experiment": "ED50 in Pseudomonas infection in mice", "format": "in vivo", "details": "ICR-JCL mouse, male, 20g; P. aerugenosa E 2 3.6 × 10^4 intraperitoneal; compound intramuscular after 2 hrs.; ED50 after 7 days; sodium salts", "text": "as §1, §2\nPseudomonas aerugenosa E 2 strain (3.6 × 10^4) was intraperitonealy injected to each group of 10 of ICR-JCL mouse (male, 20g). After 2 hrs., each of the test compounds was intramuscularly administered to the infected mice and the ED50 values were measured after 7 days."}, "[15]": {"details": "20 mg/kg intramuscular, sodium salts, Sarcina lutea assay"}, "[16]": {"details": "Pseudomonas aeruginosa C-73-2, read-out: Mic value against Pseudomonas aeruginosa C-73-2"}}, "note": "Where two headings read alike, the source gives them in different places."}
{"compound": "CCN1CCN(C(=O)N[C@@H](C(=O)NC2C(=O)N3C(C(=O)[O-])=C(CSc4nncs4)CS[C@H]23)c2ccc(O)cc2)C(=O)C1=O.[Na+]", "note": "(single isomer, unassigned)", "values": [{"measurement": "MIC", "setting": "[1]", "result": 0.78, "unit": "µg/mL"}, {"measurement": "MIC", "setting": "[2]; Enterobacter", "result": 25, "unit": "µg/mL"}, {"measurement": "MIC", "setting": "Escherichia coli C 73-1; Escherichia coli", "result": 1.56, "unit": "µg/mL"}, {"measurement": "MIC", "setting": "[3]; Vibrio parahaemolyticus", "result": 6.25, "unit": "µg/mL"}, {"measurement": "MIC", "setting": "[4]; Staphylococcus aureus", "result": 0.39, "unit": "µg/mL"}, {"measurement": "MIC", "setting": "[5]", "result": "< 0.05", "unit": "µg/mL"}, {"measurement": "MIC", "setting": "[6]; Bacillus", "result": 0.78, "unit": "µg/mL"}, {"measurement": "MIC", "setting": "[7]; ENTERITIDIS", "result": "< 0.05", "unit": "µg/mL"}, {"measurement": "MIC", "setting": "[8]; Pseudomonas", "result": 1.56, "unit": "µg/mL"}, {"measurement": "MIC", "setting": "Proteus morganii C73-23", "result": 6.25, "unit": "µg/mL"}, {"measurement": "MIC", "setting": "Klebsilla pneumoniae", "result": 0.1, "unit": "µg/mL"}, {"measurement": "MIC", "setting": "Proteus morganii kono", "result": 1.56, "unit": "µg/mL"}, {"measurement": "concentration at 0.5 h", "setting": "[9]; [15]", "result": 52800, "unit": "ng/mL"}, {"measurement": "dose excreted at 6 h", "setting": "[9]; 20 mg/kg intramuscular, after 6 hrs., sodium salts, Sarcina lutea assay, read-out: ACCUMULATIVE URINARY EXCRETION", "result": 33.4, "unit": "%"}, {"measurement": "MIC", "setting": "Escherichia coli C 73-4; Escherichia coli", "result": 0.39, "unit": "µg/mL"}, {"measurement": "MIC", "setting": "Serratia strain No. 2; Serratia, NO.2", "result": 3.13, "unit": "µg/mL"}, {"measurement": "MIC", "setting": "[10]; Vibrio parahaemolyticus", "result": 6.25, "unit": "µg/mL"}, {"measurement": "MIC", "setting": "Serratia strain No. 1; Serratia, NO.1", "result": 3.13, "unit": "µg/mL"}, {"measurement": "MIC", "setting": "[11]; Pseudomonas", "result": 25, "unit": "µg/mL"}, {"measurement": "MIC", "setting": "Salmonella strain C73-1; Salmonella", "result": 0.39, "unit": "µg/mL"}, {"measurement": "MIC", "setting": "[12]; Salmonella", "result": 0.39, "unit": "µg/mL"}, {"measurement": "MIC", "setting": "[13]; Pseudomonas aeruginosa", "result": 6.25, "unit": "µg/mL"}, {"measurement": "ED50 in Pseudomonas infection in mice", "setting": "[14]", "result": 3.0, "unit": "mg/mouse"}]}
{"compound": "CCN1CCN(C(=O)N[C@@H](C(=O)NC2C(=O)N3C(C(=O)O)=C(CSc4nnc(C)s4)CSC23)c2ccc(O)c(Cl)c2)C(=O)C1=O", "note": "(single isomer, unassigned) [Example 7]", "values": [{"measurement": "MIC", "setting": "[13]; [16]", "result": 12.5, "unit": "µg/mL"}]}
{"compound": "CCN1CCN(C(=O)N[C@@H](C(=O)NC2C(=O)N3C(C(=O)O)=C(CSc4nnc(C)s4)CS[C@H]23)c2ccc(O)cc2)C(=O)C1=O", "note": "(single isomer, unassigned) [Example 8, 7-[D(-)-α-(4-ethyl-2,3-dioxopiperazin-1-yl-carbonylamino)-p-hydroxyphenylacetamido]-3-(5-methyl-1,3,4-thiadiazol-2-yl-thiomethyl)-3-cephem-4-carboxylic acid]", "values": [{"measurement": "MIC", "setting": "[13]; [16]", "result": 25, "unit": "µg/mL"}]}
{"compound": "CCN1CCN(C(=O)N[C@@H](C(=O)NC2C(=O)N3C(C(=O)O)=C(CSc4nncs4)CS[C@H]23)c2ccc(O)c(Cl)c2)C(=O)C1=O", "note": "(single isomer, unassigned) [II, 7-[D(-)-α-(4-ethyl-2,3-dioxopiperazin-1-yl-carbonylamino)-m-chloro-p-hydroxyphenylacetamido]-3-(1,3,4-thiadiazol-2-yl-thiomethyl)-3-cephem-4-carboxylic acid]", "values": [{"measurement": "MIC", "setting": "[1]; Streptococcus faecalis ATCC 8043, in vitro, sodium salts, read-out: MIC", "result": 1.56, "unit": "µg/mL"}, {"measurement": "MIC", "setting": "[2]; Enterobacter strain C73-17, in vitro, sodium salts, read-out: MIC", "result": 12.5, "unit": "µg/mL"}, {"measurement": "MIC", "setting": "Escherichia coli C 73-1; Escherichia coli C 73-1, in vitro, sodium salts, read-out: MIC", "result": 1.56, "unit": "µg/mL"}, {"measurement": "MIC", "setting": "[3]; Vibrio parahaemolyticus K - 5, in vitro, sodium salts, read-out: MIC", "result": 12.5, "unit": "µg/mL"}, {"measurement": "MIC", "setting": "[4]; Staphylococcus aureus FDA 209NIH, P-J C-1, in vitro, sodium salts, read-out: MIC", "result": 0.2, "unit": "µg/mL"}, {"measurement": "MIC", "setting": "[5]", "result": "< 0.05", "unit": "µg/mL"}, {"measurement": "MIC", "setting": "[6]; Bacillus substilis ATCC 6633, in vitro, sodium salts, read-out: MIC", "result": 0.39, "unit": "µg/mL"}, {"measurement": "MIC", "setting": "[7]; Salmonella enteritidis No. 11, in vitro, sodium salts, read-out: MIC", "result": "< 0.05", "unit": "µg/mL"}, {"measurement": "MIC", "setting": "[8]; Pseudomonas strain C73-63, in vitro, sodium salts, read-out: MIC", "result": 1.56, "unit": "µg/mL"}, {"measurement": "MIC", "setting": "Proteus morganii C73-23; Proteus morganii C73-23, in vitro, sodium salts, read-out: MIC", "result": 6.25, "unit": "µg/mL"}, {"measurement": "MIC", "setting": "Klebsilla pneumoniae; Klebsilla pneumoniae, in vitro, sodium salts, read-out: MIC", "result": 0.78, "unit": "µg/mL"}, {"measurement": "MIC", "setting": "Proteus morganii kono; Proteus morganii kono, in vitro, sodium salts, read-out: MIC", "result": 3.13, "unit": "µg/mL"}, {"measurement": "dose excreted at 6 h", "setting": "[9]; 20 mg/kg", "result": 24, "unit": "%"}, {"measurement": "concentration at 0.5 h", "setting": "[9]; [15]", "result": 28800, "unit": "ng/mL"}, {"measurement": "MIC", "setting": "Escherichia coli C 73-4; Escherichia coli C 73-4, in vitro, sodium salts, read-out: MIC", "result": 1.56, "unit": "µg/mL"}, {"measurement": "MIC", "setting": "Serratia strain No. 2; Serratia strain No. 2, in vitro, sodium salts, read-out: MIC", "result": 6.25, "unit": "µg/mL"}, {"measurement": "MIC", "setting": "[10]; Vibrio parahaemolyticus K - 3, in vitro, sodium salts, read-out: MIC", "result": 12.5, "unit": "µg/mL"}, {"measurement": "MIC", "setting": "Serratia strain No. 1; Serratia strain No. 1, in vitro, sodium salts, read-out: MIC", "result": 3.13, "unit": "µg/mL"}, {"measurement": "MIC", "setting": "[11]; Pseudomonas strain C73-83, in vitro, sodium salts, read-out: MIC", "result": 12.5, "unit": "µg/mL"}, {"measurement": "MIC", "setting": "Salmonella strain C73-1; Salmonella strain C73-1, in vitro, sodium salts, read-out: MIC", "result": 0.78, "unit": "µg/mL"}, {"measurement": "MIC", "setting": "[12]; Salmonella strain C 73-30, in vitro, sodium salts, read-out: MIC", "result": 1.56, "unit": "µg/mL"}, {"measurement": "MIC", "setting": "[13]; Pseudomonas aeruginosa C73-2, in vitro, sodium salts, read-out: MIC", "result": 6.25, "unit": "µg/mL"}, {"measurement": "ED50 in Pseudomonas infection in mice", "setting": "[14]", "result": 2.2, "unit": "mg/mouse"}]}
